# Assay results taken from patent US12617773B2, “Azetidin-3-ylmethanol derivatives as CCR6 receptor modulators” (Idorsia Pharmaceuticals Ltd, priority 2020, dated 2026).
# Biological target: T1, human CCR6 (Homo sapiens, UniProt P51684)
# T1 construct: expressed in transfected cells; host or cells: HEK-293
# T1 sequence (P51684 1-374): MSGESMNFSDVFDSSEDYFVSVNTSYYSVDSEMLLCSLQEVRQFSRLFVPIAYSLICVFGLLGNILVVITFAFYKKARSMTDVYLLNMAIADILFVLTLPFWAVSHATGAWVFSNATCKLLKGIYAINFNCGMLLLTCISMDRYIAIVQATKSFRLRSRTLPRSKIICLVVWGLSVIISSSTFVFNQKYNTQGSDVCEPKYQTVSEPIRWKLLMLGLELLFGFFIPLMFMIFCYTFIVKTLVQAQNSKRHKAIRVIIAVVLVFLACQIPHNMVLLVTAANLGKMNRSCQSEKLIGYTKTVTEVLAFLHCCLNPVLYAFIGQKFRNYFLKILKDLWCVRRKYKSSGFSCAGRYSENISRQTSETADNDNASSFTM
# Experiment: FLIPR assay (inhibition of CCL20-induced calcium signal)
# Type: cell-based
# Details: HEK-293 cells expressing human CCR6; mean values where determined several times; read-out: FLIPR IC50
# Summary of the method: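 Dye-loaded HEK-293 cells expressing human CCR6 were preincubated with compound for 30 min at room temperature in the dark, then challenged with 10 nM CCL20 (final). Fluorescence was tracked on FLIPR, and baseline-subtracted peak emission over base after agonist addition gave inhibition dose-response curves for IC50.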
row,SMILES,IC50
1,"CNC1(c2nc(-c3cncc([C@@](O)(c4ccc(C(C)C)cc4)C4(C)CN(C)C4)c3)no2)CC1 [Example 389, (R)-(1,3-Dimethyl-azetidin-3-yl)-(4-isopropyl-phenyl)-{5-[5-(1-methylamino-cyclopropyl)-[1,2,4]oxadiazol-3-yl]-pyridin-3-yl}-methanol]",58.1 nM
2,CCOC(=O)N(C)C1(c2nc(-c3cncc([C@@](O)(c4ccc(C(C)C)cc4)C4(C)CN(C)C4)c3)no2)CC1 [Example 390],175 nM
3,CC(C)c1ccc([C@](O)(c2cncc(-c3noc(C4(N(C)S(C)(=O)=O)CC4)n3)c2)C2(C)CN(C)C2)cc1 [Example 391],58.8 nM
4,"CC(C)c1ccc([C@](O)(c2cnnc(OC3CCCC3(C)C)c2)C2(C)CN(C)C2)cc1 (stereo partly drawn) [Example 392, (R)-(1,3-Dimethyl-azetidin-3-yl)-[6-(2,2-dimethyl-cyclopentyloxy)-pyridazin-4-yl]-(4-isopropyl-phenyl)-methanol]",24.2 nM
5,"CC(C)c1ccc([C@](O)(c2cnnc(OC3CCC(F)(F)C3)c2)C2(C)CN(C)C2)cc1 (stereo partly drawn) [Example 393, (R)-[6-(3,3-Difluoro-cyclopentyloxy)-pyridazin-4-yl]-(1,3-dimethyl-azetidin-3-yl)-(4-isopropyl-phenyl)-methanol]",25.1 nM
6,"CC(C)c1ccc([C@](O)(c2cnnc(Oc3ccccc3CCO)c2)C2(C)CN(C)C2)cc1 [Example 394, 2-(2-{5-[(R)-(1,3-Dimethyl-azetidin-3-yl)-hydroxy-(4-isopropyl-phenyl)-methyl]-pyridazin-3-yloxy}-phenyl)-ethanol]",1040 nM
7,CC(C)c1ccc([C@](O)(c2cnnc(Oc3ccc(CCO)cc3)c2)C2(C)CN(C)C2)cc1 [Example 395],60.1 nM
8,CC(C)c1ccc([C@](O)(c2cnnc(Oc3ccc4c(c3)CCCO4)c2)C2(C)CN(C)C2)cc1 [Example 396],34.4 nM
9,CC(C)c1ccc([C@](O)(c2cnnc(Oc3ccc4[nH]c(=O)oc4c3)c2)C2(C)CN(C)C2)cc1 [Example 397],29.1 nM
10,CCC(O)(C#Cc1cncc([C@@](O)(c2ccc(C(C)C)cc2)C2(C)CN(C)C2)c1)c1cc(C)ncn1 (stereo partly shown) [Example 398],51.8 nM
11,Cc1cc([C@@](C)(O)C#Cc2cncc([C@@](O)(c3ccc(C(C)C)cc3)C3(C)CN(C)C3)c2)ncn1 [Example 399],107 nM
12,Cc1cc([C@](C)(O)C#Cc2cncc([C@@](O)(c3ccc(C(C)C)cc3)C3(C)CN(C)C3)c2)ncn1 [Example 400],160 nM
13,CC(C)c1ccc([C@](O)(c2cncc(C#CC3(c4ccc(F)cc4)CC3)c2)C2(C)CN(C)C2)cc1 [Example 403],40.4 nM
14,CC(C)c1ccc([C@](O)(c2cncc(C#CC3(O)CCN(C(=O)OC(C)(C)C)C3)c2)C2(C)CN(C)C2)cc1 (stereo partly shown) [Example 406],37.6 nM
15,CC(C)c1ccc([C@](O)(c2cncc(C#CC3CCN(C(=O)OC(C)(C)C)CC3)c2)C2(C)CN(C)C2)cc1 [Example 407],51.8 nM
16,"CCC(O)(CCc1cncc([C@@](O)(c2ccc(C(C)C)cc2)C2(C)CN(C)C2)c1)c1cc(C)ncn1 (stereo partly drawn) [Example 408, 1-{5-[(R)-(1,3-Dimethyl-azetidin-3-yl)-hydroxy-(4-isopropyl-phenyl)-methyl]-pyridin-3-yl}-3-(6-methyl-pyrimidin-4-yl)-pentan-3-ol]",138 nM
17,COC(=O)c1ccccc1CCc1cncc([C@@](O)(c2ccc(C(C)C)cc2)C2(C)CN(C)C2)c1 [Example 409],48.8 nM
18,CC(C)c1ccc([C@](O)(c2cncc(CCc3ccccc3CO)c2)C2(C)CN(C)C2)cc1 [Example 410],84.9 nM
19,COc1cc(C(C)(O)CCc2cncc([C@@](O)(c3ccc(C(C)C)cc3)C3(C)CN(C)C3)c2)ncn1 (stereo partly shown) [Example 411],86.3 nM
20,CC(C)c1ccc([C@](O)(c2cncc(CCC3(O)CCN(C(=O)OC(C)(C)C)C3)c2)C2(C)CN(C)C2)cc1 (stereo partly shown) [Example 412],90 nM

# The remaining lines, values ahead:
row,IC50,SMILES
1,36.7 nM,"CC(C)c1ccc([C@](O)(c2cncc(CCc3cc4cccnc4[nH]3)c2)C2(C)CN(C)C2)cc1 [Example 413, (R)-(1,3-Dimethyl-azetidin-3-yl)-(4-isopropyl-phenyl)-{5-[2-(1H-pyrrolo[2,3-b]pyridin-2-yl)-ethyl]-pyridin-3-yl}-methanol]"
2,34.7 nM,"CC(C)c1ccc([C@](O)(c2cncc(CCC3CCN(C(=O)OC(C)(C)C)CC3)c2)C2(C)CN(C)C2)cc1 [Example 414, 4-(2-{5-[(R)-(1,3-Dimethyl-azetidin-3-yl)-hydroxy-(4-isopropyl-phenyl)-methyl]-pyridin-3-yl}-ethyl)-piperidine-1-carboxylic acid tert-butyl ester]"
3,61.9 nM,CC(C)c1ccc([C@](O)(c2cncc(CCC(C)(O)c3ccccn3)c2)C2(C)CN(C)C2)cc1 (stereo partly shown) [Example 415]
4,14.7 nM,CC(C)c1ccc([C@](O)(c2cncc(CCC(O)(c3ccccn3)C3CC3)c2)C2(C)CN(C)C2)cc1 (stereo partly shown) [Example 416]
5,118 nM,Cc1cncc(C(C)(O)CCc2cncc([C@@](O)(c3ccc(C(C)C)cc3)C3(C)CN(C)C3)c2)c1 (stereo partly shown) [Example 417]
6,190 nM,"CC(C)c1ccc([C@](O)(c2cnnc(CCC3(O)CCCc4cccnc43)c2)C2(C)CN(C)C2)cc1 (stereo partly drawn) [Example 418, 8-(2-{5-[(R)-(1,3-Dimethyl-azetidin-3-yl)-hydroxy-(4-isopropyl-phenyl)-methyl]-pyridazin-3-yl}-ethyl)-5,6,7,8-tetrahydro-quinolin-8-ol]"
7,155 nM,"COc1cccc(C(C)(O)CCc2cc([C@@](O)(c3ccc(C(C)C)cc3)C3(C)CN(C)C3)cnn2)n1 (stereo partly drawn) [Example 419, 4-{5-[(R)-(1,3-Dimethyl-azetidin-3-yl)-hydroxy-(4-isopropyl-phenyl)-methyl]-pyridazin-3-yl}-2-(6-methoxy-pyridin-2-yl)-butan-2-ol]"
8,277 nM,"Cc1cccc(C(C)(O)CCc2cc([C@@](O)(c3ccc(C(C)C)cc3)C3(C)CN(C)C3)cnn2)n1 (stereo partly drawn) [Example 420, 4-{5-[(R)-(1,3-Dimethyl-azetidin-3-yl)-hydroxy-(4-isopropyl-phenyl)-methyl]-pyridazin-3-yl}-2-(6-methyl-pyridin-2-yl)-butan-2-ol]"
9,712 nM,"CC(C)c1ccc(C(O)(c2cccc(N3CCCC3)n2)C2(C)CN(C)C2)cc1 (stereo not shown) [Example 421, (1,3-Dimethyl-azetidin-3-yl)-(4-isopropyl-phenyl)-(6-pyrrolidin-1-yl-pyridin-2-yl)-methanol]"
10,66.7 nM,CC(=O)N1CCC(F)(c2nc(-c3cncc([C@@](O)(c4ccc(C(C)C)cc4)C4(C)CN(C)C4)c3)no2)CC1 [Example 422]
11,61.8 nM,CC(=O)N1CCC(C)(c2nc(-c3cncc([C@@](O)(c4ccc(C(C)C)cc4)C4(C)CN(C)C4)c3)no2)CC1 [Example 423]
12,107 nM,"CC(C)c1ccc([C@](O)(c2cncc(OC3CCC(=O)CC3)c2)C2(C)CN(C)C2)cc1 [Example 424, 4-{5-[(R)-(1,3-Dimethyl-azetidin-3-yl)-hydroxy-(4-isopropyl-phenyl)-methyl]-pyridin-3-yloxy}-cyclohexanone]"
13,1730 nM,"CC(C)c1ccc([C@](O)(c2cncc(C3CCC(O)CC3)c2)C2(C)CN(C)C2)cc1 (stereo partly drawn) [Example 425, 4-{5-[(R)-(1,3-Dimethyl-azetidin-3-yl)-hydroxy-(4-isopropyl-phenyl)-methyl]-pyridin-3-yl}-cyclohexanol]"
14,17.7 nM,"CC(C)c1ccc([C@](O)(c2cncc(COC3CCCC3)c2)C2(C)CN(C)C2)cc1 [Example 426, (R)-(5-Cyclopentyloxymethyl-pyridin-3-yl)-(1,3-dimethyl-azetidin-3-yl)-(4-isopropyl-phenyl)-methanol]"
15,292 nM,CC(=O)N1CCC(OCc2cncc([C@@](O)(c3ccc(C(C)C)cc3)C3(C)CN(C)C3)c2)CC1 [Example 427]
16,598 nM,"CC(C)c1ccc([C@](O)(c2cnnc(C3CCOCC3)c2)C2(C)CN(C)C2)cc1 [Example 428, (R)-(1,3-Dimethyl-azetidin-3-yl)-(4-isopropyl-phenyl)-[6-(tetrahydro-pyran-4-yl)-pyridazin-4-yl]-methanol]"
17,103 nM,"CC(C)c1ccc([C@](O)(c2cnnc(CCC(C)(O)c3ccccc3)c2)C2(C)CN(C)C2)cc1 (stereo partly drawn) [Example 429, 4-{5-[(R)-(1,3-Dimethyl-azetidin-3-yl)-hydroxy-(4-isopropyl-phenyl)-methyl]-pyridazin-3-yl}-2-phenyl-butan-2-ol]"
18,209 nM,"CC(C)c1ccc([C@](O)(c2cnnc(O[C@H]3CCOC3)c2)C2(C)CN(C)C2)cc1 [Example 430, (R)-(1,3-Dimethyl-azetidin-3-yl)-(4-isopropyl-phenyl)-{6-[(S)-(tetrahydro-furan-3-yl)oxy]-pyridazin-4-yl}-methanol]"
19,197 nM,"CC(C)c1ccc([C@](O)(c2cnnc(O[C@@H]3CCOC3)c2)C2(C)CN(C)C2)cc1 [Example 431, (R)-(1,3-Dimethyl-azetidin-3-yl)-(4-isopropyl-phenyl)-{6-[(R)-(tetrahydro-furan-3-yl)oxy]-pyridazin-4-yl}-methanol]"
20,146 nM,CC1CC(=O)N(c2cc([C@@](O)(c3ccc(C(C)C)cc3)C3(C)CN(C)C3)cnn2)C1 (stereo partly shown) [Example 432]
21,58.5 nM,CC(C)c1ccc([C@](O)(c2cnnc(N3CCC(C(C)C)C3=O)c2)C2(C)CN(C)C2)cc1 (stereo partly shown) [Example 433]
22,147 nM,CC(C)c1ccc([C@](O)(c2cnnc(N3CCC(C)(C)C3=O)c2)C2(C)CN(C)C2)cc1 [Example 434]
23,175 nM,CC(C)c1ccc([C@](O)(c2cnnc(N3CC(C)(C)CC3=O)c2)C2(C)CN(C)C2)cc1 [Example 435]
